Data on one compound can be found in US8153104B2, “Pharmaceutical formulations for dry powder inhalers comprising a low-dosage strength active ingredient” (Chiesi Farmaceutici S.p.A., priority 2005, dated 2012).

This data set can be described thus: Particle size of microparticles by laser diffraction analysis. The format is physicochemical. To be noted: starting material of Example 2. The method, then: The particle size of the obtained microparticles was determined by laser diffraction analysis. The parameters taken into consideration were: i) the VD in micron of 10%, 50%, and 90% of the particles expressed as d(v, 0.1), d(v, 0.5) and d(v, 0.9), respectively, which correspond to the mass diameter assuming a size independent density for the particles. ii) the polydispersity of the powder, i.e. the width of the particle size distribution which is expressed by the span (span=[d(v, 0.9)−d(v, 0.1)]/d (v, 0.5)—according to Chew N Y et al J Pharm Pharmaceut Sci 2002, 5, 162-168).
The agglomerates were isolated by sieving and their particle size distribution determined by laser diffraction analysis.
The microparticles were characterised in terms of particle size (laser diffraction analysis) and uniformity of distribution of the active ingredient.

Structures can show the parent of a compound that is named as a salt.

As to `COc1ccc(C[C@@H](C)NC[C@H](O)c2ccc(O)c3[nH]c(=O)ccc23)cc1` [CHF 4226 hydrochloride, 8-hydroxy-5-[(1R)-1-hydroxy-2-[[(1R)-2-(4-methoxyphenyl)-1-methylethyl]amino]ethyl-2(1H)-quinolinone hydrochloride], the “MMD of micronised active ingredient” value is 1.8 micron.
